In publication PMC6572573, “Development of a Ternary Solid Dispersion Formulation of LW6 to Improve the In Vivo Activity as a BCRP Inhibitor: Preparation and In Vitro/In Vivo Characterization” (Pharmaceutics, 2019):

Tests used:
[1] = test system: breast cancer resistance protein (BCRP); design: method as in PMID 27520631; conditions: previous reports ref 4; cited from earlier work
BCRP = molecular target: T1, BCRP (Rattus norvegicus, UniProt Q80W57); test: Oral pharmacokinetics of topotecan (BCRP substrate) in rats with/without co-administered LW6 formulations; format: in vivo
T1 construct: from tissue; host or cells: living male Sprague-Dawley rats (intestine)
T1 sequence (Q80W57 1-657): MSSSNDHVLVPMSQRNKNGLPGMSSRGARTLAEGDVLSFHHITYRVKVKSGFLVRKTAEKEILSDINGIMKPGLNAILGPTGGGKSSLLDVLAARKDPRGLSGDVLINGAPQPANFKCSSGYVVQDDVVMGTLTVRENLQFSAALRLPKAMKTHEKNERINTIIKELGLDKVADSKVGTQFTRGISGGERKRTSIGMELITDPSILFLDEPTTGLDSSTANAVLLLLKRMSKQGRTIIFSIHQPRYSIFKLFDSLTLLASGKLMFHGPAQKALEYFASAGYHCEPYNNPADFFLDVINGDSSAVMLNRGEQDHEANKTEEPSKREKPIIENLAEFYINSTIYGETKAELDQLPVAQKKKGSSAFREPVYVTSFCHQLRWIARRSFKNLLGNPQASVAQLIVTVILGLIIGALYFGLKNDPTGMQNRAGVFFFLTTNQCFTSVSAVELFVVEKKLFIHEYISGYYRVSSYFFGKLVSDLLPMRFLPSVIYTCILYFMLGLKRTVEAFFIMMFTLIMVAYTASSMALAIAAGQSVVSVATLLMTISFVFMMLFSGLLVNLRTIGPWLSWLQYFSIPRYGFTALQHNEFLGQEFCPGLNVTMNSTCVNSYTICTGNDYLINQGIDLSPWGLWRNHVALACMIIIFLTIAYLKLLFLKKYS
Method: The pharmacokinetic profiles of topotecan, which is a representative BCRP substrate, were examined in rats with/without the co-administration of LW6 in different formulations. Animal studies were carried out in accordance with the “Guiding Principles in the Use of Animals in Toxicology” adopted by the Society of Toxicology (USA), and the study protocol was approved by the review committee of Dongguk University (IACUC-2017-016-2). Male Sprague–Dawley rats (260–280 g) were provided by Orient bio Co., Ltd. (Seongnam, Korea). All the rats were given free access to tap water and a normal standard chow diet (Superfeed Company, Wonju, Korea). The rats were fasted for 18 h before the experiments, and divided into three groups (n = 3 per group). The pure drug or SD (equivalent to 20 mg/kg of LW6) was suspended in 0.5% aqueous methylcellulose with 5% polyethylene glycol (PEG) and topotecan (10 mg/kg) was dissolved in saline. Each formulation was given orally to the three groups of rats (group 1, topotecan only; group 2, topotecan + pure LW6; group 3, topotecan + SD of LW6). Blood samples were obtained from the femoral artery at the predetermined time points. The blood samples were centrifuged at 13,000 rpm for 5 min, and the obtained plasma samples were frozen at −20 °C until analyzed by liquid chromatography-tandem mass spectrometry (LC-MS/MS).
LC-MS/MS assay for topotecan: The concentration of topotecan in rat plasma was determined using LC-MS/MS assay as reported by Ye et al.. Briefly, 100 µL of plasma, 20 µL of the internal standard camptothecin (1 µg/mL), and 180 µL of methanol were mixed vigorously, and then centrifuged at 13,000 rpm for 5 min. After centrifugation, 240 µL of the supernatant was collected and dried under vacuum. After complete drying, the residue was re-dispersed in methanol and analyzed by LC-MS/MS. Chromatographic separation was done with a C18 column (4.6 × 100 mm, 2.6 μm; Phenomenex, Torrance, CA, USA) using a mobile phase consisting of acetonitrile and 0.1% formic acid (80:20, v/v) at a flow rate of 0.4 mL/min. Mass spectrometric detection was done using the AB Sciex API 4000 triple quadrupole mass spectrometer (AB Sciex, Framingham, MA, USA). The electrospray ionization (ESI) source was set in positive ionization mode. The precursor/product ion pair (m/z) was 422.2/377.1 for topotecan and 349.1/305.2 for camptothecin (IS). The calibration curve was prepared at concentrations of 1 to 1000 ng/mL with a good linearity of r^2 value greater than 0.99.
Based on the noncompartmental analysis, the area under the plasma concentration–time curve (AUC) was calculated using the linear trapezoidal method. The peak plasma concentration (Cmax) and the time to reach the peak plasma concentration (Tmax) were values recorded from the experimental data.

[2] = Apparent aqueous solubility of LW6 formulations (HPLC); format: physicochemical; conditions: water
Method: For the selection of optimal carriers, SDs of LW6 were prepared with various hydrophilic polymers at a drug–carrier ratio of 1:5 using the solvent evaporation method. Briefly, LW6 was dissolved in dichloromethane by sonication for 10 min for complete solubilization. Each polymeric carrier was dissolved in dichloromethane and added to the drug solution. After vigorous mixing, all the solvents were eliminated under vacuum at room temperature. The resulting product was milled and sieved through an 80-mesh screen. The corresponding physical mixtures (PMs) were also prepared by mixing LW6 and each carrier with a mortar and pestle. The carrier that enhanced the LW6 solubility to the greatest extent was selected for preparing the ternary SD formulations of LW6. The effect of surfactants on the solubility of LW6 was also determined using a 10% aqueous solution of various surfactants.
Each formulation equivalent to 1 mg of LW6 was dissolved in 1 mL of distilled water and stirred at 300 rpm for 48 h at room temperature. […] The drug concentration in each filtrate was measured by HPLC assay.
HPLC assay for LW6: The concentrations of LW6 from in vitro samples were determined using a HPLC system (Perkin Elmer series 200, Waltham, MA, USA) consisting of a UV detector, a pump, and an automatic injector. […]

[3] = In vitro drug release (dissolution) studies; format: physicochemical; conditions: 37 °C, 100 rpm
Method: The drug release profiles of each formulation were examined at different pH conditions (1.2, 4.0, and 6.8). Each formulation (drug amount equivalent to 1 mg of LW6) was dispersed in different release media (10 mL) and stirred at 100 rpm, 37 °C. At predetermined time points (10, 20, 30, 45, and 60 min), the samples were collected and filtered through a 0.45-µm pore-sized cellulose syringe filters. The drug concentration in each filtrate was determined by HPLC assay.
HPLC assay for LW6: The concentrations of LW6 from in vitro samples were determined using a HPLC system (Perkin Elmer series 200, Waltham, MA, USA) consisting of a UV detector, a pump, and an automatic injector. A reversed-phase C18 column (Gemini C18, 4.6 × 150 mm, 5 µm; Phenomenex, Torrance, CA, USA) was eluted with a mobile phase consisting of acetonitrile and 0.1% formic acid (80:20, v/v). The flow rate was 1.0 mL/min at 30 °C, and the UV wavelength was set at 254 nm. Valsartan was used as an internal standard, and the calibration curve of LW6 was linear (r^2 = 0.99) within the concentration range of 0.05 to 100 µg/mL.

[4] = male, Sprague-Dawley, rat, plasma, oral topotecan 10 mg/kg, with or without LW6 20 mg/kg (pure or F8-SD), mean ± SD (n = 3)

Question: For `COC(=O)c1ccc(O)c(NC(=O)COc2ccc(C34CC5CC(CC(C5)C3)C4)cc2)c1` [LW6, 3-[2-(4-adamantan-1-yl-phenoxy)-acetylamino]-4-hydroxy-benzoic acid methyl ester], which “BCRP inhibitory potency compared with typical BCRP inhibitor” value [1] is on record?
Answer: more potent than Kol43

Question: And the “Increase in oral (systemic) exposure of topotecan by coadministration” value (BCRP; oral topotecan 10 mg/kg + LW6 20 mg/kg equivalent, versus topotecan only)?
Answer: approximately threefold

Question: What about the “Aqueous solubility of pure LW6 (in words)” value [2] of the same compound?
Answer: practically insoluble

Question: What about the “Drug release within 20 min” value ([3]; acidic to neutral pH range (pH 1.2, 4.0, 6.8)) of the same compound?
Answer: negligible

Question: And the “Drug release within 1 h” value ([3]; water)?
Answer: minimal

Question: Which results are given for `CC[C@@]1(O)C(=O)OCc2c1cc1n(c2=O)Cc2cc3c(CN(C)C)c(O)ccc3nc2-1` [Topotecan, topotecan]?
Answer: AUC (BCRP; [4]): 204 ± 11.1 ng·h/mL; Cmax (BCRP; [4]): 31.3 ± 7.1 ng/mL; Tmax (BCRP; [4]): 0.4 ± 0.1 h; half-life (BCRP; male, Sprague-Dawley, rat, plasma, oral topotecan 10 mg/kg, with or without LW6 20 mg/kg (pure or F8-SD), mean ± SD (n = 3), read-out: T1/2 of topotecan (converted)): 2 ± 0.4 h
